Data on 79 molecules can be found in article PMC12040169 (PLOS Biology, 2025).

Molecules are shown by their SMILES.

One data set in a line: in vitro. To be noted: human, hela cells, % viability.
For the molecule `COc1cc(CNc2cc(-c3ccc(N4CCOCC4)cc3)ncn2)cc(OC)c1OC` [CBK091174], the viability at 28.5 h, 10 µM was 93.9%.
Still for that read-out and setting: the result for `COc1cc(CNc2cc(-c3cccc4oc5ccccc5c34)ncn2)cc(OC)c1OC` [CBK091177] reads 90.3%.
Take `COc1cc(CNc2cc(-c3cccc4cccnc34)ncn2)cc(OC)c1OC` [CBK091179]: the viability at 28.5 h, 10 µM worked out at 76.6%.
As for `Nc1cccc(-c2cc(Nc3ccc(C4CCCCC4)cc3)ncn2)c1` [CBK091191], the viability at 28.5 h, 10 µM amounted to 88.8%.
In the case of `CCN(CC)CCN1CCN(c2cc(-c3cccc4ccccc34)ncn2)CC1` [CBK091196], the viability at 28.5 h, 10 µM is 99.9%.
As for `CCN(CC)CCN1CCN(c2cc(-c3ccc(SC)cc3)ncn2)CC1` [CBK091203], the viability at 28.5 h, 10 µM is 93.3%.
With `c1ccc(CCCNc2ncc(-c3ccc(N4CCOCC4)cc3)n3ccnc23)cc1` [CBK091223], the viability at 28.5 h, 10 µM is 112%.
The same measure, in the same setting: the result for `CN1CCN(c2ncc(-c3ccc(N4CCOCC4)cc3)n3ccnc23)CC1` [CBK091226] reads 103%.
Same read-out and setting: then `COc1ccccc1-c1cnc(Nc2ccc(N3CCOCC3)cc2)c2nccn12` [CBK091230], with 99.9%; and `CC(=O)Nc1cccc(-c2cnc(Nc3ccc(N4CCOCC4)cc3)c3nccn23)c1` [CBK091235], with 99.9%.
Same read-out and setting: then `CN(C)C(=O)c1cccc(-c2cnc(N3CCOCC3)c3nccn23)c1` [CBK091261], with 101%; and `CC(C)CNc1ncc(-c2ccc(N3CCOCC3)cc2)n2ccnc12` [CBK091273], with 101%; and `CN(Cc1ccccc1)c1ncc(-c2ccc(N3CCOCC3)cc2)n2ccnc12` [CBK091275], with 99.7%.
Consider `CN(C)c1ccccc1-c1cnc(N2CCOCC2)c2nccn12` [CBK091280], for which the viability at 28.5 h, 10 µM was determined as 90.7%.
Consider `Cc1csc(-c2cnc(N3CCOCC3)c3nccn23)c1` [CBK091287], for which the viability at 28.5 h, 10 µM was 87.5%.
Still for that read-out and setting: then `c1ccc(Cn2cc(-c3cnc(N4CCOCC4)c4nccn34)cn2)cc1` [CBK091289], with 79.7%.
Still for that read-out and setting: the result for `c1ccc2cc(-c3cnc(N4CCOCC4)c4nccn34)ccc2c1` [CBK091307] reads 94.1%.
On the same count and under the same terms, the result for `CC(=O)N[C@H](Cc1c[nH]c2ccccc12)C(=O)N1CCN(c2ccc(C(F)(F)F)cc2)CC1` [CBK091314] reads 94.5%.
In the case of `CCOC(=O)CCCCCCC(=O)N1CCN(c2ccc(C(F)(F)F)cc2)CC1` [CBK091327], the viability at 28.5 h, 10 µM was 107%.
The same measure, in the same setting: the result for `CC(=O)[C@H]1C[C@@H](CC(=O)N2CCN(c3ccc(C(F)(F)F)cc3)CC2)C1(C)C` [CBK091330] reads 93.6%; that for `Cc1ccccc1C(=O)NCC(=O)Nc1ccc(Cl)nc1` [CBK091335], 103%.
In the case of `CC(=O)[C@H]1C[C@@H](CC(=O)Nc2ccc(Cl)nc2)C1(C)C` [CBK091338], the viability at 28.5 h, 10 µM came to 97.7%.
`CC(=O)NCCCCCC(=O)Nc1ccc(Cl)cn1` [CBK091341]: the viability at 28.5 h, 10 µM turned out to be 92.3%.
`CCC(C)(C)C(=O)Nc1ccc(Br)c2ccccc12` [CBK091342]: the viability at 28.5 h, 10 µM came out at 79.7%.
Regarding `O=C(Nc1cc2cccnc2nc1Cl)c1ccc(C(F)(F)F)cc1[N+](=O)[O-]` [CBK091348], the viability at 28.5 h, 10 µM is 89.9%.
As to `CC(=O)[C@H]1C[C@@H](CC(=O)Nc2cc3cccnc3nc2Cl)C1(C)C` [CBK091351], the viability at 28.5 h, 10 µM was found to be 95.7%.
On the same count and under the same terms, then `Cc1ccc(S(=O)(=O)NCC(=O)Nc2ccc(Cl)cn2)cc1` [CBK091357], with 105%.
The same measure, in the same setting: then `FC(F)(F)c1cccc(Sc2cccc3ccccc23)n1` [CBK091449], with 94.8%; and `CC(C)(C)OCc1[nH]n(CCc2ccccc2)c(=O)c1Cc1c(Cl)cccc1Cl` [CBK091452], with 89.3%; and `Cc1ccc(C(=O)N2CN(C(=O)CN(C)CCN(C)C)CC2(C)C)cc1` [CBK091460C], with 115%.
On to `Brc1cn2c(-c3ccccc3)cnc2c(N2CCCC2)n1` [CBK091488], for which the viability at 28.5 h, 10 µM is 106%.
With `COc1ccc(CCCC(=O)N2CCN(c3ccccc3OC)CC2)cc1OC` [CBK091495], the viability at 28.5 h, 10 µM worked out at 87.1%.
For the molecule `COc1ccccc1N1CCN(C(=O)C2CC2C)CC1` (stereo not shown) [CBK091496], the viability at 28.5 h, 10 µM amounted to 108%.
The same measure, in the same setting: then `COc1ccccc1N1CCN(C(=O)CN2C(=O)c3ccccc3C2=O)CC1` [CBK091501], with 95.5%; and `COc1ccccc1N1CCN(C(=O)c2ccccc2C(=O)c2ccccc2)CC1` [CBK091506], with 92.9%; and `COc1ccccc1N1CCN(C(=O)c2ccc3c(c2)no[n+]3[O-])CC1` [CBK091510], with 85%.
Turning to `c1ccc(CNC2CCc3[nH]c4ccccc4c3C2)cc1` (stereo not shown) [CBK091587T], the viability at 28.5 h, 10 µM was found to be 106%.
On to `CC(C)CC(C(=O)Nc1nnc(C(C)C)s1)N1C(=O)c2ccccc2C1=O` (stereo not shown) [CBK091610], for which the viability at 28.5 h, 10 µM was 77.3%.
Still for that read-out and setting: then `CN(C)S(=O)(=O)c1c(Cl)cccc1Cl` [CBK091643], with 84%; and `CC(=O)N[C@H]1[C@H](Oc2ccc3ccccc3c2)O[C@@H]2COC(C)(C)O[C@H]2[C@@H]1O` [CBK091644], with 87%; and `O=C(Nn1cnnc1)c1cccc(C(=O)Nn2cnnc2)c1` [CBK091759], with 99.4%.
`COc1ccc(-n2c(SCC(=O)Nc3cccc(C(C)=O)c3)nc3sc(C)c(C)c3c2=O)cc1` [CBK091806]: the viability at 28.5 h, 10 µM stood at 97.6%.
In the case of `CN(CC(=O)N1CCCCC1)S(=O)(=O)c1cc(Cl)ccc1Cl` [CBK091826], the viability at 28.5 h, 10 µM is 78.9%.
`CN(CC(=O)NC1CCCCC1)S(=O)(=O)c1ccc(F)cc1` [CBK091832]: the viability at 28.5 h, 10 µM turned out to be 98.6%.
Still for that read-out and setting: the result for `CCNC(=O)CN(C)S(=O)(=O)c1cc(Cl)ccc1Cl` [CBK091853] reads 94.1%; that for `Cc1ccccc1-n1c(SC(C)C)nc2sc3c(c2c1=O)CC(C)(C)OC3` [CBK091874], 91.2%.
Regarding `O=C(O)c1ccc(NS(=O)(=O)c2cccs2)cc1O` [CBK092145], the viability at 28.5 h, 10 µM was 101%.
With `CS(=O)(=O)Nc1nc2ccc(S(C)(=O)=O)cc2s1` [CBK092166], the viability at 28.5 h, 10 µM was found to be 100%.
Same read-out and setting: the result for `COc1ccc(S(=O)(=O)N2CCC(C(=O)O)CC2)cc1C(=O)O` [CBK092181] reads 91.4%.
Regarding `COC(=O)c1ccccc1Oc1nc(OC)cc(OC)n1` [CBK092217], the viability at 28.5 h, 10 µM is 110%.
For `COc1cc(OC)nc(Oc2ccc(C(=O)O)cc2)n1` [CBK092222], the viability at 28.5 h, 10 µM worked out at 106%.
Same read-out and setting: then `c1ccc(-c2cnc3c(N4CCCC4)nc(-c4cccnc4)cn23)cc1` [CBK092245], with 86.7%; and `Cc1cnc2c(N3CCCC3)nc(Cl)cn12` [CBK092250], with 104%.
Regarding `COc1ccccc1C1NC(=O)COC12CCN(Cc1ccccc1)CC2` (stereo not shown) [CBK092265], the viability at 28.5 h, 10 µM is 109%.
Take `Cn1[nH]c(CO)c(Cc2c(Cl)cccc2Cl)c1=O` [CBK092278T]: the viability at 28.5 h, 10 µM stood at 95.4%.
Turning to `COc1n[nH]c(CO)c1Cc1c(Cl)cccc1Cl` [CBK092283T], the viability at 28.5 h, 10 µM amounted to 97.3%.
Same read-out and setting: then `CCOC(=O)c1cnc(SC)nc1NCCc1c[nH]c2cc(OC)ccc12` [CBK092317], with 87.6%.
The same measure, in the same setting: the result for `Cc1ccccc1C(=O)NCC(=O)NCc1csc(-c2ccccc2)n1` [CBK092334] reads 91.8%; that for `CCC(=O)NCc1csc(-c2ccccc2)n1` [CBK092344], 90.1%; that for `CSCC[C@H](NC(=O)OC(C)(C)C)C(=O)NCc1csc(-c2ccccc2)n1` [CBK092345], 88%.
On the same count and under the same terms, the result for `Cc1nc(-c2ccccc2)sc1CNC(=O)/C=C\C(=O)Nc1ccc(F)cc1` [CBK092357] reads 96.2%.
Regarding `Cc1nc(-c2ccccc2)sc1CNC(=O)C(F)(F)F` [CBK092363], the viability at 28.5 h, 10 µM came to 88.8%.
Consider `Cc1nc(-c2ccccc2)sc1CNC(=O)CCC(F)(F)F` [CBK092365], for which the viability at 28.5 h, 10 µM was 102%.
As to `Cc1nc(-c2ccccc2)sc1CNC(=O)/C=C/c1c[nH]cn1` [CBK092368], the viability at 28.5 h, 10 µM was 83.3%.

The data set is the same for the next values; noted with them: human, hela cells, % viability, bulk resorufin, single well.
As for `CC(=O)[C@H]1C[C@@H](CC(=O)N2CCC(C(C)=O)(c3ccccc3)CC2)C1(C)C` [CBK091323], the viability at 28.5 h, 10 µM is 109%.
The same measure, in the same setting: the result for `N#CC1(c2ccccc2)CCN(C(=O)COc2ccc(F)cc2)CC1` [CBK091387] reads 92.6%.
As to `COc1ccc(CC(=O)N2CCC(C#N)(c3ccccc3)CC2)c(OC)c1` [CBK091388], the viability at 28.5 h, 10 µM stood at 91.4%.
With `N#CC1(c2ccccc2)CCN(C(=O)c2ccccc2C(=O)c2ccccc2)CC1` [CBK091396], the viability at 28.5 h, 10 µM was determined as 107%.
Same read-out and setting: then `N#CC1(c2ccccc2)CCN(C(=O)c2ccc(S(N)(=O)=O)cc2)CC1` [CBK091397], with 96.5%; and `CCC(=O)N1CCC(C#N)(c2ccccc2)CC1` [CBK091400], with 87%; and `CC(=O)c1c(C)[nH]c(C(=O)N2CCC(C#N)(c3ccccc3)CC2)c1C` [CBK091404], with 93.3%.
The same measure, in the same setting: then `N#CC1(c2ccccc2)CCN(C(=O)c2ccc3c(c2)no[n+]3[O-])CC1` [CBK091405], with 92.2%.
In the case of `COc1cc(-c2ccc3c(c2)OC2(CCNCC2)O3)ccn1` [CBK091454], the viability at 28.5 h, 10 µM turned out to be 106%.
On the same count and under the same terms, then `CCOC(=O)N1CCC2(CC1)Oc1ccc(-c3ccc(OC)cc3OC)cc1O2` [CBK091467], with 99.7%; and `COc1cc(C(=O)Nc2ccc3c(c2)COC2(CCN(C(=O)OC(C)(C)C)CC2)O3)cc(OC)c1OC` [CBK091527], with 85.9%; and `COc1ccc(C(=O)Nc2ccc3c(c2)COC2(CCNCC2)O3)c(OC)n1` [CBK091528T], with 87.5%.
For the molecule `O=C(Nc1ccc2c(c1)COC1(CCNCC1)O2)c1cc2cc(Cl)ccc2[nH]1` [CBK091529T], the viability at 28.5 h, 10 µM turned out to be 71.3%.
Take `COc1cc(NC(=O)Nc2ccc3c(c2)COC2(CCNCC2)O3)cc(OC)c1OC` [CBK091530T]: the viability at 28.5 h, 10 µM is 94.9%.
On the same count and under the same terms, then `CC(C)(C)OC(=O)N1CCC2(CC1)OCc1cc(Br)ccc1O2` [CBK092251], with 99.4%.
